Results as given in ChEMBL document CHEMBL5523733, “Small Molecule Targeting PPM1A Activates Autophagy for Mycobacterium tuberculosis Host-Directed Therapy” (J Med Chem, 2024).
Activity calls are given as the source filed them. No cut-off for these calls is given here.

Experiments:
Protein phosphatase 1A = target: T1, Protein phosphatase 1A (Homo sapiens, UniProt P35813); assay: Inhibition of recombinant human PPM1A using pNPP as substrate preincubated for 15 mins followed by substrate addition measured after 20 mins by absorbance based assay
T1 sequence (P35813 whole entry): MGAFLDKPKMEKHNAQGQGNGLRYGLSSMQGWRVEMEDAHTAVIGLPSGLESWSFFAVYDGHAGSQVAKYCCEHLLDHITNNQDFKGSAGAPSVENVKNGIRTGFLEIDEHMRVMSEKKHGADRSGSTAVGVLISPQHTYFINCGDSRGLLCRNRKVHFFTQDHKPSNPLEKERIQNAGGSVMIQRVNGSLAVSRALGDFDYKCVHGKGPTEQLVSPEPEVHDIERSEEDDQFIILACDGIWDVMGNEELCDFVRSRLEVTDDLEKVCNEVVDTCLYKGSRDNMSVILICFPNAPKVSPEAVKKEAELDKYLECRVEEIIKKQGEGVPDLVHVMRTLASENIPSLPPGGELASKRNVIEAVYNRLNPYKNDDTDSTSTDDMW

THP-1 [1] = assay: Induction of DNA damage in human THP-1 macrophages assessed as increase in gamma-H2AX at 0.1 to 10 uM incubated for 24 hrs by Western blot analysis; type: toxicity, cell-based; settings: thp-1, 24 h, dose 0.1-10 µM
[2] = Half life in ICR mouse at 10 mg/kg, po measured for 24 hrs; type: ADME, organism-based; settings: in vivo
THP-1 [3] = assay: Induction of DNA damage in human THP-1 monocytes assessed as increase in gamma-H2AX at 0.1 to 10 uM incubated for 24 hrs by Western blot analysis; type: toxicity, cell-based; settings: thp-1, 24 h, dose 0.1-10 µM
[4] = Toxicity in BALB/c mouse assessed as increase in stress level at 100 mg/kg, ip administered daily for 14 days; type: organism-based; settings: in vivo, 336 h, time 14 day
THP-1 [5] = assay: Cytotoxicity against human THP-1 macrophages assessed as cell viability at 0.1 to 10 uM incubated for 24 hrs by flow cytometry; type: toxicity, cell-based; settings: thp-1, 24 h, dose 0.1-10 µM
[6] = Toxicity in BALB/c mouse assessed as change in spleen weight at 12.5 to 100 mg/kg, ip administered daily for 14 days; type: organism-based; settings: in vivo, 336 h, dose 12.5-100 mg/kg, time 14 day
[7] = Toxicity in BALB/c mouse assessed as visible abnormality at 12.5 to 50 mg/kg, ip administered daily for 14 days; type: organism-based; settings: in vivo, 336 h, dose 12.5-50 mg/kg, time 14 day
[8] = AUClast in ICR mouse at 2 mg/kg, iv measured for 24 hrs; type: ADME, organism-based; settings: in vivo
dsDNA [9] = assay: Binding affinity to dsDNA (unknown origin) assessed as reduction in fluorescence intensity at 5 uM relative to control; type: nucleic-acid assay; set-up: scale not given: the % may be the effect or the level left
[10] = Toxicity in BALB/c mouse infected with Mycobacterium tuberculosis mc2 6206 assessed as body weight loss at 12.5 to 50 mg/kg, ip administered daily for 8 days; type: organism-based; settings: in vivo, 192 h, dose 12.5-50 mg/kg, time 8 day
[11] = Cytotoxicity against human Caco-2 cells by resazurin dye based assay; type: toxicity, cell-based
THP-1 [12] = assay: Induction of autophagy in human THP-1 macrophages assessed as increase in p62 phosphorylation at S403 incubated for 24 hrs in presence of bafilomycin by Western blot analysis; type: functional, cell-based; settings: dose 0.25-8 µM
[13] = Toxicity in BALB/c mouse assessed as body weight change at 12.5 to 100 mg/kg, ip administered daily for 14 days; type: organism-based; settings: in vivo, 336 h, dose 12.5-100 mg/kg, time 14 day
[14] = Oral bioavailability in ICR mouse at 10 mg/kg measured for 24 hrs; type: ADME, organism-based; settings: in vivo
[15] = AUC (infinity) in ICR mouse at 2 mg/kg, iv measured for 24 hrs; type: ADME, organism-based; settings: in vivo
[16] = Toxicity in BALB/c mouse assessed as change in kidney weight at 12.5 to 100 mg/kg, ip administered daily for 14 days; type: organism-based; settings: in vivo, 336 h, dose 12.5-100 mg/kg, time 14 day
[17] = Cmax in ICR mouse at 10 mg/kg, po measured for 24 hrs; type: ADME, organism-based; settings: in vivo
THP-1 [18] = assay: Induction of autophagy in human THP-1 macrophages assessed as increase in lipidated LC3-II level at 0.25 to 8 uM incubated for 24 hrs in presence of bafilomycin by Western blot analysis; type: functional, cell-based; settings: dose 0.25-8 µM
[19] = Toxicity in BALB/c mouse infected with Mycobacterium tuberculosis mc2 6206 assessed as visible toxic signs at 12.5 to 50 mg/kg, ip administered daily for 8 days; type: organism-based; settings: in vivo, 192 h, dose 12.5-50 mg/kg, time 8 day
[20] = Toxicity in BALB/c mouse assessed as increase in brain weight at higher concentration administered intraperitoneally daily for 14 days; type: tissue-based; settings: in vivo, ip, 336 h, time 14 day
[21] = system: Mycobacterium tuberculosis; assay: Anti-mycobacterial activity against Mycobacterium tuberculosis mc2 6206 assessed as bacterial growth inhibition at 20 uM incubated for 5 days by resazurin dye based assay; type: functional, organism-based; settings: time 5.0 day
[22] = Half life in ICR mouse at 2 mg/kg, iv measured for 24 hrs; type: ADME, organism-based; settings: in vivo
[23] = Clearance in ICR mouse at 2 mg/kg, iv measured for 24 hrs; type: ADME, organism-based; settings: in vivo
[24] = system: Mycobacterium tuberculosis; assay: Inhibition of Mycobacterium tuberculosis mc2 6206 burden in lung of BALB/c mouse infected with at 12.5 to 50 mg/kg, ip administered daily for 8 days; type: functional, organism-based; settings: dose 12.5-50 mg/kg, time 8.0 day
[25] = Toxicity in BALB/c mouse assessed as change in liver weight at 12.5 to 100 mg/kg, ip administered daily for 14 days; type: organism-based; settings: in vivo, 336 h, dose 12.5-100 mg/kg, time 14 day
[26] = AUClast in ICR mouse at 10 mg/kg, po measured for 24 hrs; type: ADME, organism-based; settings: in vivo
[27] = Toxicity in BALB/c mouse assessed as increase in irritability at 100 mg/kg, ip administered daily for 14 days; type: organism-based; settings: in vivo, 336 h, time 14 day
[28] = Cytotoxicity against human THP-1 cells by resazurin dye based assay; type: toxicity, cell-based
[29] = AUC (infinity) in ICR mouse at 10 mg/kg, po measured for 24 hrs; type: ADME, organism-based; settings: in vivo
THP-1 [30] = assay: Cytotoxicity against human THP-1 monocytes assessed as cell viability at 0.1 to 10 uM incubated for 24 hrs by flow cytometry; type: toxicity, cell-based; settings: thp-1, 24 h, dose 0.1-10 µM
[31] = Tmax in ICR mouse at 10 mg/kg, po measured for 24 hrs; type: ADME, organism-based; settings: in vivo
[32] = system: Mycobacterium tuberculosis; assay: Anti-mycobacterial activity against Mycobacterium tuberculosis mc2 6206 infected in BALB/c mouse assessed as reduction in bacterial burden in spleen administered intraperitoneally daily for 8 days; type: functional, organism-based; settings: dose 12.5-50 mg/kg, route ip, time 8.0 day
[33] = Toxicity in BALB/c mouse assessed as change in lung weight at 12.5 to 100 mg/kg, ip administered daily for 14 days; type: organism-based; settings: in vivo, 336 h, dose 12.5-100 mg/kg, time 14 day
dsDNA [34] = assay: Binding affinity to dsDNA (unknown origin) of 5 uM assessed as reduction in fluorescence intensity at 5 uM relative to control; type: nucleic-acid assay; set-up: scale not given: the % may be the effect or the level left
THP-1 [35] = assay: Induction of DNA damage in human THP-1 macrophages assessed as increase in gamma-H2AX at 10 uM incubated for 24 hrs by Western blot analysis; type: toxicity, cell-based; settings: thp-1, 24 h
dsDNA [36] = assay: Binding affinity to dsDNA (unknown origin) of 10 uM assessed as reduction in fluorescence intensity at 5 uM relative to control; type: nucleic-acid assay; set-up: scale not given: the % may be the effect or the level left
THP-1 [37] = assay: Induction of DNA damage in human THP-1 monocytes assessed as increase in gamma-H2AX at 1 uM incubated for 24 hrs by Western blot analysis; type: toxicity, cell-based; settings: thp-1, 24 h
THP-1 [38] = assay: Cytotoxicity against human THP-1 monocytes assessed as cell viability at 10 uM incubated for 24 hrs by flow cytometry; type: toxicity, cell-based; settings: thp-1, 24 h

SMILES: OCC[n+]1cccc2cc(F)ccc21
- IC50 (Protein phosphatase 1A): > 20 µM

SMILES: Cc1ccc2c(c1)c[n+](CCO)c1ccc(F)cc21
- IC50 (Protein phosphatase 1A): > 20 µM

SMILES: CCOc1ccc2c(c1)c[n+](CCO)c1ccc(F)cc21.[Br-]
- Activity (THP-1 [1]): Non-Toxic
- half-life [2]: 46.3 min
- Activity (THP-1 [3]): Non-Toxic
- Activity [4]: Toxic
- Activity (THP-1 [5]): Non-Toxic
- Activity [6]: Non-Toxic
- Activity [7]: Non-Toxic
- AUC(0-t) at 24 h [8]: 206 ng·h/mL
- Activity (dsDNA [9]): 10%
- Activity [10]: Non-Toxic
- CC50 [11]: > 200 µM
- Activity (THP-1 [12]): Dose-Dependent Effect
- Activity [13]: Non-Toxic
- bioavailability [14]: 73.7%
- AUC(0-inf) [15]: 208 ng·h/mL
- Activity [16]: Non-Toxic
- Cmax [17]: 908 ng/mL
- Activity (THP-1 [18]): Active
- Activity [19]: Non-Toxic
- Activity [20]: Toxic
- inhibition [21]: inactive
- half-life [22]: 38 min
- clearance [23]: 170 mL/min/kg
- inhibition [24]: inactive
- Activity [25]: Non-Toxic
- AUC(0-t) at 24 h [26]: 759 ng·h/mL
- Activity [27]: Toxic
- CC50 [28]: 138 µM
- IC50 (Protein phosphatase 1A): 0.18 µM
- Ki (Protein phosphatase 1A): 0.59 µM
- AUC(0-inf) [29]: 761 ng·h/mL
- Activity (THP-1 [30]): Non-Toxic
- Tmax [31]: 15 min
- Activity [32]: Dose-Dependent Effect
- Activity [33]: Non-Toxic

SMILES: OCC[n+]1cc2cc(F)ccc2c2cc(F)ccc21
- IC50 (Protein phosphatase 1A): > 20 µM

SMILES: COc1ccc2c(c1)c[n+](CCCCO)c1ccc(F)cc21
- IC50 (Protein phosphatase 1A): > 20 µM

SMILES: COc1ccc2c(c1)c1ccc(OC(F)(F)F)cc1c[n+]2CCO
- IC50 (Protein phosphatase 1A): 3.06 µM

SMILES: OCC[n+]1cc2ccccc2c2cc(F)ccc21
- IC50 (Protein phosphatase 1A): > 20 µM

SMILES: COc1ccc2c(c1)c[n+](Cc1cccc(O)c1)c1ccc(F)cc21
- IC50 (Protein phosphatase 1A): > 20 µM

SMILES: COc1cc2c[n+](CCO)c3ccc(F)cc3c2cc1-c1ccc2c(c1)OCO2
- IC50 (Protein phosphatase 1A): > 20 µM

SMILES: OCC[n+]1cc2cc(OC(F)(F)F)ccc2c2cc(F)ccc21
- CC50 [11]: > 200 µM
- CC50 [28]: > 200 µM
- IC50 (Protein phosphatase 1A): 1.43 µM

SMILES: COc1ccc(-c2cc3c(cc2OC)c[n+](CCO)c2ccc(F)cc32)cc1
- CC50 [11]: 74.6 µM
- CC50 [28]: 37.2 µM
- IC50 (Protein phosphatase 1A): 0.29 µM

SMILES: CC(C)Oc1ccc2c(c1)c[n+](CCO)c1ccc(F)cc21
- IC50 (Protein phosphatase 1A): 3.72 µM

SMILES: CCOc1ccc2c(c1)c[n+](CCO)c1ccc(OC)cc21
- IC50 (Protein phosphatase 1A): > 20 µM

SMILES: COc1ccc2c(c1)c[n+](CCO)c1ccc(C)cc21
- IC50 (Protein phosphatase 1A): > 20 µM

SMILES: COc1ccc2c(c1)c[n+](CCO)c1ccc(Cl)cc21
- IC50 (Protein phosphatase 1A): > 20 µM

SMILES: CCCCOc1ccc2c(c1)c[n+](CCO)c1ccc(F)cc21
- IC50 (Protein phosphatase 1A): 3.56 µM

SMILES: COc1ccc2c(c1)c[n+](NCCO)c1ccc(F)cc21
- IC50 (Protein phosphatase 1A): > 10 µM

SMILES: COc1cc2c[n+](CCO)c3ccc(F)cc3c2cc1-c1ccc(NC(=O)OC(C)(C)C)cc1
- IC50 (Protein phosphatase 1A): > 20 µM

SMILES: C[n+]1cc2c3c(ccc2c2ccc4cc5c(cc4c21)OCO5)OCO3 [SANGUINARIUM]
- Activity (dsDNA [34]): 84%
- Activity (THP-1 [35]): Toxic
- Activity (dsDNA [36]): 93%
- Activity (THP-1 [37]): Toxic
- Activity (THP-1 [38]): Toxic
